Positions of bridges follow the written chain, without caps; N, C: chain ends. Non-standard residues stand in square brackets, D forms with d. Residues, ends and D or L forms follow the SMILES beside them. *: point of attachment. Me3N+(CH2)2O(CH2)2O(CH2)2CO = C[N+](C)(C)CCOCCOCCC(=O)*; Trp(7-Me) = Cc1cccc2c(C[C@H](N)C(=O)O)c[nH]c12; X9 = COCCOCCOCC[N+](C)(C)CCc1cn(CC*)nn1; 2Nal = N[C@@H](Cc1ccc2ccccc2c1)C(=O)O; X81 = C[N+](C)(CCCC*)CC[N+]1(C)CCOCC1; X75 = C[N+](C)(C)CCOCC[N+](C)(C)CC*; X77 = COCCN1CC[N+]2(CC1)CCN(CC*)CC2; 3Pal = N[C@@H](Cc1cccnc1)C(=O)O; Lys(Me) = CNCCCC[C@H](N)C(=O)O; Pen = CC(C)(S)[C@H](N)C(=O)O; Thp = NC1(C(=O)O)CCOCC1; Sar = CNCC(=O)O

The data set in a line: Exposed Polar Surface Area (EPSA). Particulars: SFC on Chirex 3014 column; sample 1 mM DMSO stock; read-out: EPSA. The class given is physicochemical. The method in brief: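 Chirex 3014 column, 35 °C, 4 mL/min; CO2/MeOH + 20 mM NH4 formate, 5→60% modifier at 20%/min. UV/MS detection. EPSA (Å^2) from retention time vs 8-standard calibration line; duplicates; 1 mM DMSO stock injected undiluted.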
Consider `COCCOCCOCC[N+](C)(C)CCc1cn(CCOc2ccc(C[C@H](NC(=O)[C@H]3NC(=O)[C@H](CCCCNC(C)=O)NC(=O)[C@H](Cc4c[nH]c5c(C)cccc45)NC(=O)[C@H]([C@@H](C)O)NC(=O)[C@H](CC(N)=O)NC(=O)[C@@H](NC(C)=O)C(C)(C)SSC3(C)C)C(=O)N[C@@H](Cc3ccc4ccccc4c3)C(=O)NC3(C(=O)N[C@@H](CCCCNC(C)=O)C(=O)N[C@@H](CC(N)=O)C(=O)N[C@@H](Cc4cccnc4)C(=O)N(C)CC(N)=O)CCOCC3)cc2)nn1` [compound 260] (Ac-[Pen]NT[Trp(7-Me)]K(Ac)[Pen]Y(X9)[2Nal][Thp]K(Ac)N[3Pal][Sar]-NH2; disulfide 1-6), for which the EPSA was found to be 147 A^2.
Regarding `COCCN1CC[N+]2(CC1)CCN(CCOc1ccc(C[C@H](NC(=O)[C@H]3NC(=O)[C@H](CCCCN(C)C(C)=O)NC(=O)[C@H](Cc4c[nH]c5c(C)cccc45)NC(=O)[C@H]([C@@H](C)O)NC(=O)[C@H](CC(=O)N(C)C)NC(=O)[C@@H](NC(=O)CCOCCOCC[N+](C)(C)C)C(C)(C)SSC3(C)C)C(=O)N[C@@H](Cc3ccc4ccccc4c3)C(=O)NC3(C(=O)N[C@@H](CCCCN(C)C(C)=O)C(=O)N[C@@H](CC(N)=O)C(=O)N[C@@H](Cc4cccnc4)C(=O)N(C)CC(=O)N(C)C)CCOCC3)cc1)CC2` [compound 262, cPEG3aCO-Pen(3)-N(N(Me)2)-T-7MeW-K(NMeAc)-Pen(3)-MTASF-2Nal-THP-K(NMeAc)-N-3Pya-Sar-CON(Me)2] ({Me3N+(CH2)2O(CH2)2O(CH2)2CO}-[Pen]D(NMe2)T[Trp(7-Me)][Lys(Me)](Ac)[Pen]Y(X77)[2Nal][Thp][Lys(Me)](Ac)N[3Pal][Sar]-NMe2; disulfide 1-6), the EPSA amounted to 145 A^2.
Take `CC(=O)N(C)CCCC[C@@H]1NC(=O)[C@H](Cc2c[nH]c3c(C)cccc23)NC(=O)[C@H]([C@@H](C)O)NC(=O)[C@H](CC(=O)N(C)C)NC(=O)[C@@H](NC(=O)CCOCCOCC[N+](C)(C)C)C(C)(C)SSC(C)(C)[C@@H](C(=O)N[C@@H](Cc2ccc(OCC[N+](C)(C)CCOCC[N+](C)(C)C)cc2)C(=O)N[C@@H](Cc2ccc3ccccc3c2)C(=O)NC2(C(=O)N[C@@H](CCCCN(C)C(C)=O)C(=O)N[C@@H](CC(N)=O)C(=O)N[C@@H](Cc3cccnc3)C(=O)N(C)CC(=O)N(C)C)CCOCC2)NC1=O` [compound 264, cPEG3aCO-Pen(3)-N(N(Me)2)-T-7MeW-K(NMeAc)-Pen(3)-AEF(aPEG2a)-2Nal-THP-K(NMeAc)-N-3Pya-Sar-CON(Me)2] ({Me3N+(CH2)2O(CH2)2O(CH2)2CO}-[Pen]D(NMe2)T[Trp(7-Me)][Lys(Me)](Ac)[Pen]Y(X75)[2Nal][Thp][Lys(Me)](Ac)N[3Pal][Sar]-NMe2; disulfide 1-6): the EPSA is 151 A^2.
Turning to `CC(=O)N(C)CCCC[C@@H]1NC(=O)[C@H](Cc2c[nH]c3c(C)cccc23)NC(=O)[C@H]([C@@H](C)O)NC(=O)[C@H](CC(=O)N(C)C)NC(=O)[C@@H](NC(=O)CCOCCOCC[N+](C)(C)C)C(C)(C)SSC(C)(C)[C@@H](C(=O)N[C@@H](Cc2ccc(OCCCC[N+](C)(C)CC[N+]3(C)CCOCC3)cc2)C(=O)N[C@@H](Cc2ccc3ccccc3c2)C(=O)NC2(C(=O)N[C@@H](CCCCN(C)C(C)=O)C(=O)N[C@@H](CC(N)=O)C(=O)N[C@@H](Cc3cccnc3)C(=O)N(C)CC(=O)N(C)C)CCOCC2)NC1=O` [compound 271, cPEG3aCO-Pen(3)-N(N(Me)2)-T-7MeW-K(NMeAc)-Pen(3)-morfTMA4F-2Nal-THP-K(NMeAc)-N-3Pya-Sar-CON(Me)2] ({Me3N+(CH2)2O(CH2)2O(CH2)2CO}-[Pen]D(NMe2)T[Trp(7-Me)][Lys(Me)](Ac)[Pen]Y(X81)[2Nal][Thp][Lys(Me)](Ac)N[3Pal][Sar]-NMe2; disulfide 1-6), the EPSA came to 159 A^2.

Values taken from patent US20260022143A1, “Cyclic Peptide Inhibitors of IL-23” (JANSSEN PHARMACEUTICA NV, priority 2022, published 2026).
